The target in one assay is c-Cbl (Homo sapiens (Human), UniProt P22681). In words: C-Cbl LCK Ub TR-FRET assay (C-cbl Lck HTRF). It counts as biochemical. The protocol:
(§1) 6 μL of detection mixture was added to all wells and briefly centrifuged before incubating for 20 min at room temperature. […] IC50 was generated using no LCK as the low control and DMSO as the high control.
In general terms: TR-FRET usually uses a lanthanide donor and a delayed reading to cut background.

The target in a further assay is Cbl-b (Homo sapiens (Human), UniProt Q13191). Kind of assay: Cbl-b LCK Ub TR-FRET assay (Cbl-b Lck HTRF). It counts as biochemical. The note with it: for IC50: Cbl-b LCK Ub TR-FRET; for fold-selectivity (Cbl-b over C-cbl): ratio C-cbl Lck HTRF IC50 / Cbl-b Lck HTRF IC50. The protocol:
as §1

Assay [1] has as its target Human Cbl-b (residues 40-426) (Homo sapiens (Human), UniProt Q13191). Kind of assay: Cbl-b SPR assay. It counts as binding. The note with it: C-cbl SPR Kd vs Cbl-b SPR Kd. As for the experimental part: Affinity of binding to Cbl-b and c-Cbl for compounds described herein was assessed by surface plasmon resonance (SPR) according to the following protocol.
A surface capture range of 1300-1500 RU of protein was used for both isoforms.
For SPR measurements, 6 concentrations with 2 fold serial dilution were measured with blanks flanking each series for double referencing. […] SPR sensorgrams were recorded in multi-cycle kinetics format, with a contact time of 60 seconds and a flow rate of 40 μl/min, the dissociation time was varied between 120-1200 seconds aiming for 4-5 half-lives of the measured interaction.
Kinetic and affinity parameters were extracted from the multicycle kinetics data fitting to a 1:1 binding model using the Biacore™ Incyte evaluation software (Cytiva).
Chaser assay utilize a single cycle kinetics SPR experiment with a contact time of 120 seconds, a flow rate of 50 μl/min and a dissociation time of 450 seconds. Single cycle kinetics titration utilized an initial blank injection and 5 concentrations with 2 fold serial dilution with a maximum concentration of 500 nM, blanked to a preceding 6 point blank single cycle kinetics injection for double referencing.
The kd is measured independently by determining the percentage unoccupied compound binding site over time by measuring the binding of a chaser compound measured by SPR.
Chaser binding was measured by a multicycle kinetics SPR experiment using a contact time of 20 seconds, a flow rate of 30 μl/min, and a dissociation time of 120 seconds. […] The % compound bound at a given time was determined by comparison to a single injection of chaser preceding the single cycle kinetics titration defined below. % Compound Bound=(1−(RUT/RUT0))*100
The % compound bound is plotted against time in seconds and fit to a single exponential, where the exponent represents the kd of the compound-protein complex. The single cycle kinetics experiment of the compound is then fit with a fixed kd determined using the chaser.
On the technique in general: SPR reads the build-up and loss of mass on a sensor chip optically.

Molecules are shown by their SMILES.

Chain of c-Cbl (P22681 47-435): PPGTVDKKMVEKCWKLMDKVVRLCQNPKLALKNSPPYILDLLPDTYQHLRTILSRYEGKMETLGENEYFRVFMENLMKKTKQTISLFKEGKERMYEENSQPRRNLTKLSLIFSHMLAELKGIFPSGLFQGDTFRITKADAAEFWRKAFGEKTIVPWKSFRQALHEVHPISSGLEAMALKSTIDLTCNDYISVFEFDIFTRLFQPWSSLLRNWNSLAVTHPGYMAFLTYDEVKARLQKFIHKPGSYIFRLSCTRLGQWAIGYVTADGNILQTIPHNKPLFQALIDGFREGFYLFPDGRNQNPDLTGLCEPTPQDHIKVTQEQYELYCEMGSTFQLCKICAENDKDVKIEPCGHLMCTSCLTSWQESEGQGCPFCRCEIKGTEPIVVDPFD
Chain of Human Cbl-b (residues 40-426) (Q13191 40-426): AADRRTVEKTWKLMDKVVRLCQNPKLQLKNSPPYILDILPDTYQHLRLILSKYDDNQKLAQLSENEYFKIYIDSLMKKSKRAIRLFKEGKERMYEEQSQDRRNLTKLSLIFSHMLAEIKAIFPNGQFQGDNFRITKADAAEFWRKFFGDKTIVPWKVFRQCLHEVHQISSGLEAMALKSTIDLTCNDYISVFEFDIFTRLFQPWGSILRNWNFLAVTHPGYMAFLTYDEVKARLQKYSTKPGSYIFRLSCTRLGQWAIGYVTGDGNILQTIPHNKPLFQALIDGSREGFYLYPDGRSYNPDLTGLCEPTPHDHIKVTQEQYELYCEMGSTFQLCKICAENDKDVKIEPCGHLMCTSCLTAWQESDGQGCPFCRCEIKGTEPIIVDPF
Chain of Cbl-b (Q13191 40-426): as above

Take `Cn1cnnc1[C@](O)(c1cccc(N2Cc3c(cc(CNC4(C)CCC4)cc3C(F)(F)F)C2=O)c1)C1CCC1` (single isomer, unassigned) [Compound 1]: on c-Cbl, the IC50 – broadly, the concentration needed to halve the response being measured – came out at 14100 nM. At Cbl-b, the IC50 turned out to be 8300 nM and the “fold-selectivity (Cbl-b over C-cbl)” value is “(1.7x)”.
The like results for `CC(C)[C@H]1CN(C)CCN1Cc1cc2c(c(C(F)(F)F)c1)CN(c1cccc([C@@H](c3nncn3C)C3COC3)c1)C2=O` (single isomer, unassigned) [Compound 10] were, in that order, 24 nM, 12 nM and “(2.0x)”.
The like results for `CC(C)[C@H]1CN(C)CCN1Cc1cc2c(c(C(F)(F)F)c1)CN(c1cccc([C@H](c3nncn3C)C3COC3)c1)C2=O` (single isomer, unassigned) [Compound 11] were, in that order, at least 20000 nM, 5100 nM and “(3.9x)”.
For `Cn1cnnc1[C@H](c1cccc(N2Cc3c(cc(CNC4(C)CCC4)cc3C(F)(F)F)C2=O)c1)N1CCC1` (single isomer, unassigned) [Compound 32] the same measures were 20000 nM, 3800 nM and “(5.3x)”.
On to `Cn1cnnc1[C@@H](c1cccc(N2Cc3c(cc(CNC4(C)CCC4)cc3C(F)(F)F)C2=O)c1)N1CCC1` (single isomer, unassigned) [Compound 33], for which half-maximal inhibition at c-Cbl (IC50) was put at 720 nM. Also, on Cbl-b, the IC50 worked out at 150 nM and the “fold-selectivity (Cbl-b over C-cbl)” value is listed as “(4.8x)”.
As to `CO[C@@](c1cccc(N2Cc3c(cc(CNC4(C)CCC4)cc3C(F)(F)F)C2=O)c1)(c1nncn1C)C1CCC1` (single isomer, unassigned) [Compound 118], at Cbl-b, the IC50 was at least 20000 nM and the “fold-selectivity (Cbl-b over C-cbl)” value came to 1.0x.
For the compound `Cn1cnnc1[C@H](c1cccc(N2Cc3c(cc(CNC4(C)CCC4)cc3C(F)(F)F)C2=O)c1)C1CCOCC1.O=CO` (single isomer, unassigned) [Compound 291], the Fold of selectivity in assay [1] is 2.1×. Moreover, the “fold-selectivity (Cbl-b over C-cbl)” value on Cbl-b was found to be 4.3x.
In the case of `Cn1cnnc1[C@@H](C[C@H]1COCCO1)c1cccc(N2Cc3c(cc(CNC4(C)CCC4)cc3C(F)(F)F)C2=O)c1` (single isomer, unassigned) [Compound 295, 2-(3-((S)-2-((S)-1,4-dioxan-2-yl)-1-(4-methyl-4H-1,2,4-triazol-3-yl)ethyl)phenyl)-6-(((1-methylcyclobutyl)amino)methyl)-4-(trifluoromethyl)isoindolin-1-one], on Cbl-b, the IC50 is at least 20000 nM.
Consider `Cn1cnnc1[C@H](c1cccc(N2Cc3c(cc(CNC4(C)CCC4)cc3C(F)(F)F)C2=O)c1)[C@H]1C[C@H](C)C1` (single isomer, unassigned) [Compound 376], for which, on Cbl-b, the IC50 stood at 55 nM.
As for `CC1(NCc2cc3c(c(C(F)(F)F)c2)CN(c2cccc([C@@H](C4COC4)n4ccnn4)c2)C3=O)CCC1` (single isomer, unassigned) [Compound 436, (R)-6-(((1-methylcyclobutyl)amino)methyl)-2-(3-(oxetan-3-yl(1H-1,2,3-triazol-1-yl)methyl)phenyl)-4-(trifluoromethyl)isoindolin-1-one], at Cbl-b (Example 121), the IC50 turned out to be 570 nM.
Regarding `Cn1cnnc1[C@]1(c2cc(NC3CCCCC3)nc(N3Cc4c(cc(CNC5(C)CCC5)cc4C(F)(F)F)C3=O)c2)C[C@@H](C)C1` [Compound 50, 2-(6-(cyclohexylamino)-4-((1r,3r)-3-methyl-1-(4-methyl-4H-1,2,4-triazol-3-yl)cyclobutyl)pyridin-2-yl)-6-(((1-methylcyclobutyl)amino)methyl)-4-(trifluoromethyl)isoindolin-1-one], in assay [1], the Fold of selectivity came to 3.0×. Further, at Cbl-b, the IC50 was found to be 31 nM and the “fold-selectivity (Cbl-b over C-cbl)” value was “(1.7x)”.
With `Cn1cnnc1[C@]1(c2cc(NC3CCCCC3)nc(N3Cc4c(cc(CNC5(C)CCC5)cc4C(F)(F)F)C3=O)c2)C[C@H](C)C1` [Compound 51, 2-(6-(cyclohexylamino)-4-((1s,3s)-3-methyl-1-(4-methyl-4H-1,2,4-triazol-3-yl)cyclobutyl)pyridin-2-yl)-6-(((1-methylcyclobutyl)amino)methyl)-4-(trifluoromethyl)isoindolin-1-one], at Cbl-b, the IC50 is 38 nM and the “fold-selectivity (Cbl-b over C-cbl)” value is given as “(1.6x)”.
In assay [1], `Cn1cnnc1[C@]1(c2cc(NC3CCCC3)nc(N3Cc4c(cc(CNC5(C)CCC5)cc4C(F)(F)F)C3=O)c2)C[C@@H](C)C1` [Compound 52, 2-(6-(cyclopentylamino)-4-((1r,3r)-3-methyl-1-(4-methyl-4H-1,2,4-triazol-3-yl)cyclobutyl)pyridin-2-yl)-6-(((1-methylcyclobutyl)amino)methyl)-4-(trifluoromethyl)isoindolin-1-one] returned a Fold of selectivity of 11×. Further, on Cbl-b, the IC50 came out at 7.2 nM and the “fold-selectivity (Cbl-b over C-cbl)” value is given as “(1.3x)”.
For `Cn1cnnc1[C@]1(c2cc(NC3CCCC3)nc(N3Cc4c(cc(CNC5(C)CCC5)cc4C(F)(F)F)C3=O)c2)C[C@H](C)C1` [Compound 53, 2-(6-(cyclopentylamino)-4-((1s,3s)-3-methyl-1-(4-methyl-4H-1,2,4-triazol-3-yl)cyclobutyl)pyridin-2-yl)-6-(((1-methylcyclobutyl)amino)methyl)-4-(trifluoromethyl)isoindolin-1-one] the same measures were 9.2×, 5.7 nM and “(1.1x)”.
The like results for `Cn1cnnc1[C@]1(c2cc(OC3CCCC3)nc(N3Cc4c(cc(CNC5(C)CCC5)cc4C(F)(F)F)C3=O)c2)C[C@H](C)C1` [Compound 54, 2-(6-(cyclopentyloxy)-4-((1s,3s)-3-methyl-1-(4-methyl-4H-1,2,4-triazol-3-yl)cyclobutyl)pyridin-2-yl)-6-(((1-methylcyclobutyl)amino)methyl)-4-(trifluoromethyl)isoindolin-1-one] were, in that order, 11×, 8.2 nM and “(1.4x)”.
On to `Cn1cnnc1[C@]1(c2cc(OC3CCCC3)nc(N3Cc4c(cc(CNC5(C)CCC5)cc4C(F)(F)F)C3=O)c2)C[C@@H](C)C1` [Compound 55, 2-(6-(cyclopentyloxy)-4-((1r,3r)-3-methyl-1-(4-methyl-4H-1,2,4-triazol-3-yl)cyclobutyl)pyridin-2-yl)-6-(((1-methylcyclobutyl)amino)methyl)-4-(trifluoromethyl)isoindolin-1-one], for which, on Cbl-b, the IC50 came out at 6.7 nM and the “fold-selectivity (Cbl-b over C-cbl)” value is recorded as “(1.4x)”.
At Cbl-b, `CCNc1cc(C2(c3nncn3C)CC(F)(F)C2)cc(N2Cc3c(cc(CNC4(C)CCC4)cc3C(F)(F)F)C2=O)n1` [Compound 62, 2-(4-(3,3-difluoro-1-(4-methyl-4H-1,2,4-triazol-3-yl)cyclobutyl)-6-(ethylamino)pyridin-2-yl)-6-(((1-methylcyclobutyl)amino)methyl)-4-(trifluoromethyl)isoindolin-1-one] yielded an IC50 of 5.5 nM.
Regarding `CC(=O)N1CC(c2cccc(N3Cc4c(cc(CNC5(C)CCC5)cc4C(F)(F)F)C3=O)c2)(c2nncn2C)C1` [Compound 112, 2-(3-(1-acetyl-3-(4-methyl-4H-1,2,4-triazol-3-yl)azetidin-3-yl)phenyl)-6-(((1-methylcyclobutyl)amino)methyl)-4-(trifluoromethyl)isoindolin-1-one], at Cbl-b, the IC50 is at least 20000 nM and the “fold-selectivity (Cbl-b over C-cbl)” value is 1.0x.

(Values after patent US12187709B2 (Genentech, Inc., priority 2021, dated 2025).)
